The source of these data is patent US20230062119A1, “USE OF BIOMARKERS IN IDENTIFYING PATIENTS THAT WILL BE RESPONSIVE TO TREATMENT WITH A PRMT5 INHIBITOR” (Merck Sharp & Dohme LLC, priority 2019, published 2023).

For one assay, the target named is T1, Full-length (FL)-PRMT5-MEP50 enzyme complex (Homo sapiens, UniProt O14744).
T1 construct: Full-length (FL)-PRMT5-MEP50 enzyme complex (recombinant proteins from baculovirus-transfected Sf21 cells: FL-PRMT5; MW=73837 kDa and FL-MEP50; MW=38614); made in house; host or cells: baculovirus-transfected Sf21 insect cells
T1 sequence (O14744 whole entry): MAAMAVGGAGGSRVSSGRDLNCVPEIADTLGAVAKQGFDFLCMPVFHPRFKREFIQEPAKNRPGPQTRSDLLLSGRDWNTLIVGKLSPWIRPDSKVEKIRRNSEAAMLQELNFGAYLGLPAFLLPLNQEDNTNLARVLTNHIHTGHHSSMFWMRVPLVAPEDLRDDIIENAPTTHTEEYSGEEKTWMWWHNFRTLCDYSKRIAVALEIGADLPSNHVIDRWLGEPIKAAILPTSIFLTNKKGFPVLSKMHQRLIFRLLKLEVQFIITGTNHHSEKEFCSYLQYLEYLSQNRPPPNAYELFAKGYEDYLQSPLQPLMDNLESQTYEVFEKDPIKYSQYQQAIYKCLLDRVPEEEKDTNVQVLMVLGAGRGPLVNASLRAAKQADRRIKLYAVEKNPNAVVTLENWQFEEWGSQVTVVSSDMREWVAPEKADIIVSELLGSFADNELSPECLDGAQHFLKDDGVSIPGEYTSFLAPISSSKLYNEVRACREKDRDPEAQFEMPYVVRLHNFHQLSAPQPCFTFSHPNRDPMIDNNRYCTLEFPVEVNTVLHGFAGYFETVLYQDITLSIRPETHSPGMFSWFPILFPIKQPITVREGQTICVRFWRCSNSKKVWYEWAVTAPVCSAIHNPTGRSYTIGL
T1 sequence (Q9BQA1 whole entry partner): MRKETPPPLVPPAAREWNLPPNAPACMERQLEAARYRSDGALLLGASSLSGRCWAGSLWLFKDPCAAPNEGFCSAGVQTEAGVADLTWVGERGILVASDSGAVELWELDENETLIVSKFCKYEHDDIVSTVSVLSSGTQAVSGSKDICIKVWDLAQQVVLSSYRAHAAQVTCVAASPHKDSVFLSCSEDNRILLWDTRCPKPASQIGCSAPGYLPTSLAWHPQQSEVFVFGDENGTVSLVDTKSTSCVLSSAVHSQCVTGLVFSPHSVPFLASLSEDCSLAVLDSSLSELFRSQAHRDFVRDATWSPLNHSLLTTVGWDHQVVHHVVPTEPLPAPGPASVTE
Kind of assay: PRMT5-MEP50 Enzyme Methylation Assay. The following applies: one EC50: 4 parameters single site sigmoidal model; EC50 1: first value of 7 parameters biphasic model; 1.0 nM PRMT5-MEP50, 75 nM biotinylated peptide, 15 μM SAM; read-out: Enzyme Methylation Assay (EC50 or EC50 1). It is filed as biochemical. In a few lines: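 Compound was pre-incubated 60 min at 37°C with 1.0 nM enzyme and 15 μM SAM (final) in 50 mM Bicine pH 8.0, then 75 nM biotinylated H4R3(Me1) peptide was added and reacted 150 min; twenty-point 1:2 titration from 100000 nM, 1% DMSO. Formic acid quench; SAMDI mass spectrometry measured Me1-to-Me2 conversion, EC50 by 4- or 7-parameter regression.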
For `Nc1nc2cc(O[C@H]3CC[C@@]4(O)[C@@H]3O[C@@H](n3ccc5c(N)ncnc53)[C@@H]4O)ccc2cc1F` [Example 71, (2R,3R,3aS,6S,6aR)-6-((2-amino-3-fluoroquinolin-7-yl)oxy)-2-(4-amino-7H-pyrrolo[2,3-d]pyrimidin-7-yl)hexahydro-3aH-cyclopenta[b]furan-3,3a-diol], the EC50 came to 1.6 nM.

On to `CNc1ncnc2c1ccn2[C@@H]1O[C@@H]2[C@@H](Oc3ccc4cc(Br)c(N)nc4c3)CC[C@]2(O)[C@H]1O` [Example 94, (2R,3R,3aS,6S,6aR)-6-((2-amino-3-bromoquinolin-7-yl)oxy)-2-(4-(methylamino)-7H-pyrrolo[2,3-d]pyrimidin-7-yl)hexahydro-3aH-cyclopenta[b]furan-3,3a-diol], for which the EC50 amounted to 0.8 nM.

As to `C[C@@]1(CCc2ccc3cc(F)c(N)nc3c2)C[C@@H](n2ccc3c(N)ncnc32)[C@H](O)[C@@H]1O` [Example 116, (1S,2R,3R,5R)-3-(2-(2-amino-3-fluoroquinolin-7-yl)ethyl)-5-(4-amino-7H-pyrrolo[2,3-d]pyrimidin-7-yl)-3-methylcyclopentane-1,2-diol], the EC50 stood at 2.4 nM.

On to `Nc1nc2cc(O[C@H]3CC[C@@]4(O)[C@@H]3C[C@@H](n3ccc5c(N)ncnc53)[C@@H]4O)ccc2cc1Br` [Example 119, (1S,2R,3aR,4S,6aR)-4-((2-amino-3-bromoquinolin-7-yl)oxy)-2-(4-amino-7H-pyrrolo[2,3-d]pyrimidin-7-yl)hexahydropentalene-1,6a(1H)-diol 2,2,2-trifluoroacetate], for which the EC50 turned out to be 1 nM.

Take `C[C@]1(CCc2ccc3cc(Br)c(N)nc3c2)C[C@@H](n2ccc3c(N)ncnc32)[C@H](O)[C@]1(C)O` [Example 117, (1R,2S,3R,5S)-5-(2-(2-amino-3-bromoquinolin-7-yl)ethyl)-3-(4-amino-7H-pyrrolo[2,3-d]pyrimidin-7-yl)-1,5-dimethylcyclopentane-1,2-diol]: the EC50 came out at 1 nM.

As for `Cc1nc(C)c2ccn([C@@H]3O[C@@H]4[C@H](Cc5ccc6cc(Cl)c(N)nc6c5)CC[C@]4(O)[C@H]3O)c2n1` [Example 91, (2R,3R,3aS,6S,6aR)-6-((2-amino-3-chloroquinolin-7-yl)methyl)-2-(2,4-dimethyl-7H-pyrrolo[2,3-d]pyrimidin-7-yl)hexahydro-3aH-cyclopenta[b]furan-3,3a-diol], the EC50 is 0.4 nM.

For `Nc1nc2cc(C[C@@H]3CC[C@@]4(O)[C@@H]3O[C@@H](n3ccc5c(N)nc(Cl)nc53)[C@@H]4O)ccc2cc1Cl` [Example 47, (2R,3R,3aS,6S,6aR)-2-(4-amino-2-chloro-7H-pyrrolo[2,3-d]pyrimidin-7-yl)-6-[(2-amino-3-chloroquinolin-7-yl)methyl]hexahydro-3aH-cyclopenta[b]furan-3,3a-diol], the EC50 came out at 0.2 nM.

As for `Nc1nc2cc(C[C@@H]3CC[C@@]4(O)[C@@H]3O[C@@H](n3cc(F)c5c(N)ncnc53)[C@@H]4O)ccc2cc1F` [Example 59, (2R,3R,3aS,6S,6aR)-6-((2-amino-3-fluoroquinolin-7-yl)methyl)-2-(4-amino-5-fluoro-7H-pyrrolo[2,3-d]pyrimidin-7-yl)hexahydro-3aH-cyclopenta[b]furan-3,3a-diol], the EC50 stood at 0.6 nM.

On to `Nc1nc2cc(C[C@@H]3CC[C@@]4(O)[C@@H]3C[C@@H](n3cc(F)c5c(N)ncnc53)[C@@H]4O)ccc2cc1Br` [Example 42, (1S,2R,3aR,4S,6aR)-4-((2-amino-3-bromoquinolin-7-yl)methyl)-2-(4-amino-5-fluoro-7H-pyrrolo[2,3-d]pyrimidin-7-yl)hexahydropentalene-1,6a(1H)-diol], for which the concentration for a half-maximal effect (EC50) turned out to be 0.3 nM.

For the molecule `Nc1nc2cc(C[C@@H]3CC[C@@]4(O)[C@@H]3O[C@@H](n3cc(C(F)F)c5c(N)ncnc53)[C@@H]4O)ccc2cc1F` [Example 51, (2R,3R,3aS,6S,6aR)-2-[4-amino-5-(difluoromethyl)-7H-pyrrolo[2,3-d]pyrimidin-7-yl]-6-[(2-amino-3-fluoroquinolin-7-yl)methyl]hexahydro-3aH-cyclopenta[b]furan-3,3a-diol], the EC50 amounted to 1.2 nM.

Turning to `C[C@@]1(O)[C@@H](COc2ccc3cc(Br)c(N)nc3c2)C[C@@H](n2ccc3c(N)ncnc32)[C@@H]1O` [Example 2, (1R,2S,3R,5R)-5-(((2-amino-3-bromoquinolin-7-yl)oxy)methyl)-3-(4-amino-7H-pyrrolo[2,3-d]pyrimidin-7-yl)-1-methylcyclopentane-1,2-diol], the EC50 worked out at 0.5 nM.

Regarding `Cc1ncnc2c1ccn2[C@@H]1O[C@@H]2[C@H](Cc3ccc4cc(Br)c(N)nc4c3)OC[C@]2(O)[C@H]1O` [Example 133, (2R,3R,3aS,6S,6aR)-6-((2-amino-3-bromoquinolin-7-yl)methyl)-2-(4-methyl-7H-pyrrolo[2,3-d]pyrimidin-7-yl)tetrahydrofuro[3,4-b]furan-3,3a(4H)-diol], the EC50 turned out to be 0.8 nM.

Consider `Cc1nc(N)c2ccn([C@@H]3C[C@@H]4[C@H](Cc5ccc6cc(Cl)c(N)nc6c5)CC[C@]4(O)[C@H]3O)c2n1` [Example 31, (1S,2R,3aR,4S,6aR)-2-(4-amino-2-methyl-7H-pyrrolo[2,3-d]pyrimidin-7-yl)-4-((2-amino-3-chloroquinolin-7-yl)methyl)hexahydropentalene-1,6a(1H)-diol 2,2,2-trifluoroacetate], for which the EC50 stood at 0.4 nM.

As to `Nc1ncnc2c1ccn2[C@@H]1O[C@@H]2[C@@H](Oc3ccc4cc5c(nc4c3)NCC5)CC[C@]2(O)[C@H]1O` [Example 75, (2R,3R,3aS,6S,6aR)-2-(4-amino-7H-pyrrolo[2,3-d]pyrimidin-7-yl)-6-((2,3-dihydro-1H-pyrrolo[2,3-b]quinolin-7-yl)oxy)hexahydro-3aH-cyclopenta[b]furan-3,3a-diol], the EC50 came out at 0.7 nM.

Take `Nc1nc2cc(C[C@@H]3CC[C@@]4(O)[C@@H]3O[C@@H](n3ccc5c(N)ncnc53)[C@@H]4O)ccc2cc1Cl` [Example 67, (2R,3R,3aS,6S,6aR)-6-((2-amino-3-chloroquinolin-7-yl)methyl)-2-(4-amino-7H-pyrrolo[2,3-d]pyrimidin-7-yl)hexahydro-3aH-cyclopenta[b]furan-3,3a-diol]: the EC50 was 0.8 nM.

`Nc1nc2cc(C[C@@H]3CC[C@@]4(O)[C@@H]3C[C@@H](n3ccc5c(N)ncnc53)[C@@H]4O)ccc2cc1Br` [Example 41, (1S,2R,3aR,4S,6aR)-4-((2-amino-3-bromoquinolin-7-yl)methyl)-2-(4-amino-7H-pyrrolo[2,3-d]pyrimidin-7-yl)hexahydropentalene-1,6a(1H)-diol 2,2,2-trifluoroacetate]: the EC50 turned out to be 0.7 nM.

For the molecule `C[C@@]1(O)[C@@H](COc2ccc3cc(Br)c(N)nc3c2)O[C@@H](n2ccc3c(Cl)ncnc32)[C@@H]1O` [Example 11, (2R,3S,4R,5R)-2-{[(2-amino-3-bromoquinolin-7-yl)oxy]methyl}-5-(4-chloro-7H-pyrrolo[2,3-d]pyrimidin-7-yl)-3-methyltetrahydrofuran-3,4-diol], the EC50 was found to be 0.9 nM.

For `Cc1nc(N)c2ccn([C@@H]3O[C@@H]4[C@@H](Oc5ccc6cc(Br)c(N)nc6c5)CC[C@]4(O)[C@H]3O)c2n1` [Example 63, (2R,3R,3aS,6S,6aR)-2-(4-amino-2-methyl-7H-pyrrolo[2,3-d]pyrimidin-7-yl)-6-((2-amino-3-bromoquinolin-7-yl)oxy)hexahydro-3aH-cyclopenta[b]furan-3,3a-diol], the EC50 was 0.4 nM.

For the molecule `Cc1cn([C@@H]2O[C@@H]3[C@H](Cc4ccc5cc(Br)c(N)nc5c4)CC[C@]3(O)[C@H]2O)c2ncnc(N)c12` [Example 70, (2R,3R,3aS,6S,6aR)-6-((2-amino-3-bromoquinolin-7-yl)methyl)-2-(4-amino-5-methyl-7H-pyrrolo[2,3-d]pyrimidin-7-yl)hexahydro-3aH-cyclopenta[b]furan-3,3a-diol 2,2,2-trifluoroacetate], the EC50 turned out to be 0.4 nM.

For `Cc1ncnc2c1ccn2[C@@H]1O[C@@H]2[C@H](Cc3ccc4cc(Br)c(N)nc4c3)CC[C@]2(O)[C@H]1O` [Example 8, (2R,3R,3aS,6S,6aR)-6-((2-amino-3-bromoquinolin-7-yl)methyl)-2-(4-methyl-7H-pyrrolo[2,3-d]pyrimidin-7-yl)hexahydro-2H-cyclopenta[b]furan-3,3a-diol], the EC50 was 0.5 nM.

As to `Nc1nc2cc(C[C@@H]3CC[C@@]4(O)[C@@H]3O[C@@H](n3ccc5c(N)ncnc53)[C@@H]4O)c(F)cc2cc1F` [Example 27, (2R,3R,3aS,6S,6aR)-6-[(2-amino-3,6-difluoroquinolin-7-yl)methyl]-2-(4-amino-7H-pyrrolo[2,3-d]pyrimidin-7-yl)hexahydro-3aH-cyclopenta[b]furan-3,3a-diol], the EC50 is 0.4 nM.

Turning to `Cc1ncnc2c1ccn2[C@@H]1O[C@@H]2[C@H](Cc3ccc4cc(C(F)F)c(N)nc4c3)CC[C@]2(O)[C@H]1O` [Example 23, (2R,3R,3aS,6S,6aR)-6-((2-amino-3-(difluoromethyl)quinolin-7-yl)methyl)-2-(4-methyl-7H-pyrrolo[2,3-d]pyrimidin-7-yl)hexahydro-3aH-cyclopenta[b]furan-3,3a-diol], the EC50 amounted to 0.4 nM.

Consider `Cc1cn([C@@H]2C[C@@H]3[C@H](Cc4ccc5cc(Br)c(N)nc5c4)CC[C@]3(O)[C@H]2O)c2ncnc(N)c12` [Example 40, (1S,2R,3aR,4S,6aR)-4-((2-amino-3-bromoquinolin-7-yl)methyl)-2-(4-amino-5-methyl-7H-pyrrolo[2,3-d]pyrimidin-7-yl)hexahydropentalene-1,6a(1H)-diol], for which the EC50 came out at 0.4 nM.

The same assay, now with this note: second EC50 of 7 parameters biphasic model; 1.0 nM PRMT5-MEP50, 75 nM biotinylated peptide, 15 μM SAM; read-out: Enzyme Methylation Assay (EC50 2).
Take `C[C@@]1(CCc2ccc3cc(F)c(N)nc3c2)C[C@@H](n2ccc3c(N)ncnc32)[C@H](O)[C@@H]1O` [Example 116, (1S,2R,3R,5R)-3-(2-(2-amino-3-fluoroquinolin-7-yl)ethyl)-5-(4-amino-7H-pyrrolo[2,3-d]pyrimidin-7-yl)-3-methylcyclopentane-1,2-diol]: the concentration for a half-maximal effect (EC50) stood at 661 nM.

For the molecule `Nc1nc2cc(O[C@H]3CC[C@@]4(O)[C@@H]3C[C@@H](n3ccc5c(N)ncnc53)[C@@H]4O)ccc2cc1Br` [Example 119, (1S,2R,3aR,4S,6aR)-4-((2-amino-3-bromoquinolin-7-yl)oxy)-2-(4-amino-7H-pyrrolo[2,3-d]pyrimidin-7-yl)hexahydropentalene-1,6a(1H)-diol 2,2,2-trifluoroacetate], the EC50 came out at 116 nM.

With `C[C@@]1(O)[C@@H](COc2ccc3cc(Br)c(N)nc3c2)O[C@@H](n2ccc3c(Cl)ncnc32)[C@@H]1O` [Example 11, (2R,3S,4R,5R)-2-{[(2-amino-3-bromoquinolin-7-yl)oxy]methyl}-5-(4-chloro-7H-pyrrolo[2,3-d]pyrimidin-7-yl)-3-methyltetrahydrofuran-3,4-diol], the EC50 was 501 nM.
